Measurements taken from patent publication US12077503B2, “Substituted cyclic amides and their use as herbicides” (FMC CORPORATION, priority 2015, dated 2024).

Tests used:
Assay type in all cases: in vivo
Kochia (Kochia scoparia) [1] = test: Test A preemergence; conditions: Bassia scoparia, pre-emergence, 240 h, 0 to 100 scale where 0 is no effect and 100 is complete control, read-out: Kochia plant response rating
Method in brief: (§1)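 Visual injury scores from 0, no effect, to 100, complete control, were assigned versus untreated controls roughly 10 d after treatment in the greenhouse. Test chemicals, formulated with surfactant in a non-phytotoxic solvent, were applied to planted seeds as a preemergence soil spray or postemergence to one- to two-leaf plants 2 to 10 cm tall, in loam–sand soil.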

[2] = test system: barnyardgrass (Echinochloa crus-galli); test: Test A preemergence; conditions: Echinochloa crus-galli, pre-emergence, 240 h, 0 to 100 scale where 0 is no effect and 100 is complete control, read-out: Barnyardgrass plant response rating
Method in brief: as §1

[3] = test system: giant foxtail (Setaria faberii); test: Test A preemergence; conditions: Setaria faberi, pre-emergence, 240 h, 0 to 100 scale where 0 is no effect and 100 is complete control, read-out: Foxtail, Giant plant response rating
Method in brief: as §1

[4] = test system: pigweed (Amaranthus retroflexus); test: Test A preemergence; conditions: Amaranthus retroflexus, pre-emergence, 240 h, 0 to 100 scale where 0 is no effect and 100 is complete control, read-out: Pigweed plant response rating
[5] = test system: ragweed (common ragweed, Ambrosia elatior); test: Test A preemergence; conditions: Ambrosia artemisiifolia, pre-emergence, 240 h, 0 to 100 scale where 0 is no effect and 100 is complete control, read-out: Ragweed plant response rating
Method in brief: as §1

[6] = test system: ryegrass, Italian (Italian ryegrass, Lolium multiflorum); test: Test A preemergence; conditions: Lolium multiflorum, pre-emergence, 240 h, 0 to 100 scale where 0 is no effect and 100 is complete control, read-out: Ryegrass, Italian plant response rating
Method in brief: as §1

[7] = test system: Galium (catchweed bedstraw, Galium aparine); test: Test A postemergence; conditions: Galium, post-emergence, 240 h
Method in brief: as §1

Kochia (Kochia scoparia) [8] = test: Test A postemergence; conditions: Bassia scoparia, post-emergence, 240 h
Method in brief: as §1

[9] = test system: barnyardgrass (Echinochloa crus-galli); test: Test A postemergence; conditions: Echinochloa crus-galli, post-emergence, 240 h
Method in brief: as §1

[10] = test system: blackgrass (Alopecurus myosuroides); test: Test A postemergence; conditions: Alopecurus myosuroides, post-emergence, 240 h
Method in brief: as §1

corn (Zea mays) = test: Test A postemergence; conditions: Zea mays, post-emergence, 240 h
Method in brief: as §1

[11] = test system: giant foxtail (Setaria faberii); test: Test A postemergence; conditions: Setaria faberi, post-emergence, 240 h
Method in brief: as §1

[12] = test system: pigweed (Amaranthus retroflexus); test: Test A postemergence; conditions: Amaranthus retroflexus, post-emergence, 240 h
Method in brief: as §1

[13] = test system: ragweed (common ragweed, Ambrosia elatior); test: Test A postemergence; conditions: Ambrosia artemisiifolia, post-emergence, 240 h
Method in brief: as §1

[14] = test system: ryegrass, Italian (Italian ryegrass, Lolium multiflorum); test: Test A postemergence; conditions: Lolium multiflorum, post-emergence, 240 h
Method in brief: as §1

[15] = test system: wheat (Triticum aestivum); test: Test A postemergence; conditions: Triticum aestivum, post-emergence, 240 h
Method in brief: as §1

[16] = test system: barnyardgrass (Echinochloa crus-galli); test: Test B flooded paddy test; conditions: Echinochloa crus-galli, 250 g ai/ha, Flood; 0 to 100 scale where 0 is no effect and 100 is complete control; read-out: Barnyardgrass plant response rating
Method in brief: (§2)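 Compound goes directly into floodwater once pots are flooded 3 cm above soil, targeting plants at two leaves; the water depth is then held for the test duration. Plants sit 13–15 d in a greenhouse and are rated visually, 100 denoting complete control.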

[17] = test system: ducksalad (Heteranthera limosa); test: Test B flooded paddy test; conditions: Heteranthera limosa, 250 g ai/ha, Flood; 0 to 100 scale where 0 is no effect and 100 is complete control; read-out: Ducksalad plant response rating
Method in brief: as §2

rice (Oryra sativa) = test: Test B flooded paddy test; conditions: Oryza sativa, 250 g ai/ha, Flood; 0 to 100 scale where 0 is no effect and 100 is complete control; read-out: Rice plant response rating
Method in brief: as §2

[18] = test system: sedge, umbrella (small-flower umbrella sedge, Cyperus difformis); test: Test B flooded paddy test; conditions: Cyperus difformis, 250 g ai/ha, Flood; 0 to 100 scale where 0 is no effect and 100 is complete control; read-out: Sedge, Umbrella plant response rating
Method in brief: as §2

[19] = 125 g ai/ha, preemergence, approx. 10 d

Structure (SMILES): CN1C[C@H](c2csc3c2CCCC3)[C@@H](C(=O)Nc2ccc(F)c(F)c2F)C1=O [Compound 1079]
- pest or weed control at 31 g/ha (Kochia (Kochia scoparia) [1]; 31 g ai/ha, Preemergence): 0%
- pest or weed control at 125 g/ha (Kochia (Kochia scoparia) [1]; [19]): 0%
- pest or weed control at 31 g/ha ([2]; 31 g ai/ha, Preemergence): 0%
- pest or weed control at 125 g/ha [2, 19]: 80%
- pest or weed control at 31 g/ha ([3]; 31 g ai/ha, Preemergence): 20%
- pest or weed control at 125 g/ha [3, 19]: 100%
- pest or weed control at 31 g/ha ([4]; 31 g ai/ha, Preemergence): 0%
- pest or weed control at 125 g/ha [4, 19]: 0%
- pest or weed control at 31 g/ha ([5]; 31 g ai/ha, Preemergence): 0%
- pest or weed control at 125 g/ha [5, 19]: 0%
- pest or weed control at 31 g/ha ([6]; 31 g ai/ha, Preemergence): 0%
- pest or weed control at 125 g/ha [6, 19]: 0%
- pest or weed control at 125 g/ha ([7]; 125 g ai/ha, postemergence, visual injury on 0 to 100 scale (0 no effect, 100 complete control), approx. 10 d, read-out: Galium plant response rating): 0%
- pest or weed control at 31 g/ha ([7]; Postemergence, 31 g ai/ha, visual injury after approx. 10 d, 0 to 100 scale, 0 no effect, 100 complete control, read-out: Plant response rating, Galium): 0%
- pest or weed control at 125 g/ha (Kochia (Kochia scoparia) [8]; 125 g ai/ha, postemergence, visual injury on 0 to 100 scale (0 no effect, 100 complete control), approx. 10 d, read-out: Kochia plant response rating): 20%
- pest or weed control at 31 g/ha (Kochia (Kochia scoparia) [8]; Postemergence, 31 g ai/ha, visual injury after approx. 10 d, 0 to 100 scale, 0 no effect, 100 complete control, read-out: Plant response rating, Kochia): 0%
- pest or weed control at 125 g/ha ([9]; 125 g ai/ha, postemergence, visual injury on 0 to 100 scale (0 no effect, 100 complete control), approx. 10 d, read-out: Barnyardgrass plant response rating): 90%
- pest or weed control at 31 g/ha ([9]; Postemergence, 31 g ai/ha, visual injury after approx. 10 d, 0 to 100 scale, 0 no effect, 100 complete control, read-out: Plant response rating, Barnyardgrass): 20%
- pest or weed control at 125 g/ha ([10]; 125 g ai/ha, postemergence, visual injury on 0 to 100 scale (0 no effect, 100 complete control), approx. 10 d, read-out: Blackgrass plant response rating): 0%
- pest or weed control at 31 g/ha ([10]; Postemergence, 31 g ai/ha, visual injury after approx. 10 d, 0 to 100 scale, 0 no effect, 100 complete control, read-out: Plant response rating, Blackgrass): 0%
- plant injury at 125 g/ha (corn (Zea mays); 125 g ai/ha, postemergence, visual injury on 0 to 100 scale (0 no effect, 100 complete control), approx. 10 d, read-out: Corn plant response rating): 0%
- Corn plant response rating (crop injury, 0 = no effect, 100 = complete kill) at 31 g/ha (corn (Zea mays); Postemergence, 31 g ai/ha, visual injury after approx. 10 d, 0 to 100 scale, 0 no effect, 100 complete control): 0%
- pest or weed control at 125 g/ha ([11]; 125 g ai/ha, postemergence, visual injury on 0 to 100 scale (0 no effect, 100 complete control), approx. 10 d, read-out: Foxtail, Giant plant response rating): 20%
- pest or weed control at 31 g/ha ([11]; Postemergence, 31 g ai/ha, visual injury after approx. 10 d, 0 to 100 scale, 0 no effect, 100 complete control, read-out: Plant response rating, Foxtail, Giant): 0%
- pest or weed control at 125 g/ha ([12]; 125 g ai/ha, postemergence, visual injury on 0 to 100 scale (0 no effect, 100 complete control), approx. 10 d, read-out: Pigweed plant response rating): 0%
- pest or weed control at 31 g/ha ([12]; Postemergence, 31 g ai/ha, visual injury after approx. 10 d, 0 to 100 scale, 0 no effect, 100 complete control, read-out: Plant response rating, Pigweed): 0%
- pest or weed control at 125 g/ha ([13]; 125 g ai/ha, postemergence, visual injury on 0 to 100 scale (0 no effect, 100 complete control), approx. 10 d, read-out: Ragweed plant response rating): 0%
- pest or weed control at 31 g/ha ([13]; Postemergence, 31 g ai/ha, visual injury after approx. 10 d, 0 to 100 scale, 0 no effect, 100 complete control, read-out: Plant response rating, Ragweed): 0%
- pest or weed control at 125 g/ha ([14]; 125 g ai/ha, postemergence, visual injury on 0 to 100 scale (0 no effect, 100 complete control), approx. 10 d, read-out: Ryegrass, Italian plant response rating): 0%
- pest or weed control at 31 g/ha ([14]; Postemergence, 31 g ai/ha, visual injury after approx. 10 d, 0 to 100 scale, 0 no effect, 100 complete control, read-out: Plant response rating, Ryegrass, Italian): 0%
- plant injury at 125 g/ha ([15]; 125 g ai/ha, postemergence, visual injury on 0 to 100 scale (0 no effect, 100 complete control), approx. 10 d, read-out: Wheat plant response rating): 30%
- plant injury at 31 g/ha ([15]; Postemergence, 31 g ai/ha, visual injury after approx. 10 d, 0 to 100 scale, 0 no effect, 100 complete control, read-out: Plant response rating, Wheat): 0%
- pest or weed control at 250 g/ha [16]: 60%
- pest or weed control at 250 g/ha [17]: 30%
- pest or weed control at 250 g/ha (rice (Oryra sativa)): 20%
- pest or weed control at 250 g/ha [18]: 0%
